Test system: TMD-8 cells
Assay: Cell proliferation assay (CellTiter-Glo), TMD-8
Assay type: cell-based
Settings: Homo sapiens, TMD8, 120 h; 5-day treatment; read-out: TMD8 cells growth IC50
Description: Cell proliferation assay: TMD-8 and SU-DHL-1 cells were maintained at 37° C. in a humidified atmosphere with 5% CO2 in the recommended medium and serum concentrations. For cell proliferation assay, cells were seeded in 96-well pates at a density of 5,000 to 10,000 cells per well and cultured overnight at 37° C. in recommended medium supplemented with 5-10% FBS. On the next day, the test articles at various concentrations or vehicle control (0.5% DMSO) were added into cell culture. After 5-day treatment, the growth of cells was assayed by the CellTiter-Glo® Luminestceaent Cell Viability Assay (Promega). IC50 values were calculated using GraphPad Prism by plotting the logarithm of the concentration versus percent inhibition of cell growth as compared with the vehicle control.

| Compound | IC50 [nM] |
| --- | --- |
| C=CC(=O)N1CCC[C@@H](n2cc(-c3ccc(Oc4ccccc4)cc3)c3c(N)n[nH]c(=O)c32)C1 [Example 1, (R)-1-(1-acryloylpiperidin-3-yl)-4-amino-3-(4-phenoxyphenyl)-1H-pyrrolo[2,3-d]pyridazin-7(6H)-one] | ≤ 10 |
| C=CC(=O)N1CC[C@H](n2cc(-c3ccc(Oc4ccccc4)cc3)c3c(N)n[nH]c(=O)c32)C1 [Example 3, 4-amino-3-(4-phenoxyphenyl)-1-[(3S)-1-prop-2-enoylpyrrolidin-3-yl]-6H-pyrrolo[2,3-d]pyridazin-7-one] | 10 to 1000 |
| C=CC(=O)N1CC[C@@H](n2cc(-c3ccc(Oc4ccccc4)cc3)c3c(N)n[nH]c(=O)c32)C1 [Example 4, 4-amino-3-(4-phenoxyphenyl)-1-[(3R)-1-prop-2-enoylpyrrolidin-3-yl]-6H-pyrrolo[2,3-d]pyridazin-7-one] | 10 to 1000 |
| C=CC(=O)N1CC(n2cc(-c3ccc(Oc4ccccc4)cc3)c3c(N)n[nH]c(=O)c32)C1 [Example 5, 4-amino-3-(4-phenoxyphenyl)-1-(1-prop-2-enoylazetidin-3-yl)-6H-pyrrolo[2,3-d]pyridazin-7-one] | 10 to 1000 |
| C=CC(=O)N1CCC[C@H]1Cn1cc(-c2ccc(Oc3ccccc3)cc2)c2c(N)n[nH]c(=O)c21 [Example 6, 4-amino-3-(4-phenoxyphenyl)-1-[[(2S)-1-prop-2-enoylpyrrolidin-2-yl]methyl]-6H-pyrrolo[2,3-d]pyridazin-7-one] | ≤ 10 |
| C=CC(=O)N1CCC(Cn2cc(-c3ccc(Oc4ccccc4)cc3)c3c(N)n[nH]c(=O)c32)C1 (stereo not drawn) [Example 8, 4-amino-3-(4-phenoxyphenyl)-1-[(1-prop-2-enoylpyrrolidin-3-yl)methyl]-6H-pyrrolo[2,3-d]pyridazin-7-one] | 10 to 1000 |
| C=CC(=O)N1CCC(Cn2cc(-c3ccc(Oc4ccccc4)cc3)c3c(N)n[nH]c(=O)c32)CC1 [Example 10, 4-amino-3-(4-phenoxyphenyl)-1-[(1-prop-2-enoyl-4-piperidyl)methyl]-6H-pyrrolo[2,3-d]pyridazin-7-one] | 10 to 1000 |
| C=CC(=O)N1CC(Cn2cc(-c3ccc(Oc4ccccc4)cc3)c3c(N)n[nH]c(=O)c32)C1 [Example 12, 4-amino-3-(4-phenoxyphenyl)-1-[(1-prop-2-enoylazetidin-3-yl)methyl]-6H-pyrrolo[2,3-d]pyridazin-7-one] | ≤ 10 |
| C=CC(=O)N1CCC(F)C(n2cc(-c3ccc(Oc4ccccc4)cc3)c3c(N)n[nH]c(=O)c32)C1 (stereo not drawn) [Example 13, 1-(1-acryloyl-4-fluoropiperidin-3-yl)-4-amino-3-(4-phenoxyphenyl)-1H-pyrrolo[2,3-d]pyridazin-7(6H)-one] | ≤ 10 |
| C=CC(=O)N1C[C@H](n2cc(-c3ccc(Oc4ccccc4)cc3)c3c(N)n[nH]c(=O)c32)CC(F)(F)C1 [Example 14, (R)-1-(1-acryloyl-5,5-difluoropiperidin-3-yl)-4-amino-3-(4-phenoxyphenyl)-1H-pyrrolo[2,3-d]pyridazin-7(6H)-one] | ≤ 10 |
| C=CC(=O)NC1C2CCC1CC(n1cc(-c3ccc(Oc4ccccc4)cc3)c3c(N)n[nH]c(=O)c31)C2 (stereo not drawn) [Example 15, N-(3-(4-amino-7-oxo-3-(4-phenoxyphenyl)-6,7-dihydro-1H-pyrrolo[2,3-d]pyridazin-1-yl)bicyclo[3.2.1]octan-8-yl)acrylamide] | ≤ 10 |
| CC(C)N(C)C/C=C/C(=O)N1CCC[C@@H](n2cc(-c3ccc(Oc4ccccc4)cc3)c3c(N)n[nH]c(=O)c32)C1 [Example 16, 4-amino-1-[(3R)-1-[(E)-4-[isopropyl(methyl)amino]but-2-enoyl]-3-piperidyl]-3-(4-phenoxyphenyl)-6H-pyrrolo[2,3-d]pyridazin-7-one] | 10 to 1000 |
| CN(C/C=C/C(=O)N1CCC[C@@H](n2cc(-c3ccc(Oc4ccccc4)cc3)c3c(N)n[nH]c(=O)c32)C1)C(=O)OC(C)(C)C [Example 17] | 10 to 1000 |
| CNC/C=C/C(=O)N1CCC[C@@H](n2cc(-c3ccc(Oc4ccccc4)cc3)c3c(N)n[nH]c(=O)c32)C1 [Example 18, 4-amino-1-[(3R)-1-[(E)-4-(methylamino)but-2-enoyl]-3-piperidyl]-3-(4-phenoxyphenyl)-6H-pyrrolo[2,3-d]pyridazin-7-one] | ≤ 10 |
| CCC(=O)N1CCCC(n2cc(-c3ccc(Oc4ccccc4)cc3)c3c(N)n[nH]c(=O)c32)C1 (stereo not drawn) [Example 19, 4-amino-3-(4-phenoxyphenyl)-1-(1-propionylpiperidin-3-yl)-1H-pyrrolo[2,3-d]pyridazin-7(6H)-one] | 10 to 1000 |
| N#CN1CCC[C@@H](n2cc(-c3ccc(Oc4ccccc4)cc3)c3c(N)n[nH]c(=O)c32)C1 [Example 20, (R)-3-(4-amino-7-oxo-3-(4-phenoxyphenyl)-6,7-dihydro-1H-pyrrolo[2,3-d]pyridazin-1-yl)piperidine-1-carbonitrile] | ≤ 10 |
| Nc1n[nH]c(=O)c2c1c(-c1ccc(Oc3ccccc3)cc1)cn2[C@@H]1CCCN(C(=O)CCl)C1 [Example 22, 4-amino-1-[(3R)-1-(2-chloroacetyl)-3-piperidyl]-3-(4-phenoxyphenyl)-6H-pyrrolo[2,3-d]pyridazin-7-one] | 10 to 1000 |
| Nc1n[nH]c(=O)c2c1c(-c1ccc(Oc3ccccc3)cc1)cn2[C@@H]1CCCN(C(=O)C2CC2)C1 [Example 23, 4-amino-1-[(3R)-1-(cyclopropanecarbonyl)-3-piperidyl]-3-(4-phenoxyphenyl)-6H-pyrrolo[2,3-d]pyridazin-7-one] | 10 to 1000 |
| N#CCC(=O)N1CCC[C@@H](n2cc(-c3ccc(Oc4ccccc4)cc3)c3c(N)n[nH]c(=O)c32)C1 [Example 24, 3-[(3R)-3-[4-amino-7-oxo-3-(4-phenoxyphenyl)-6H-pyrrolo[2,3-d]pyridazin-1-yl]-1-piperidyl]-3-oxo-propanenitrile] | 10 to 1000 |
| C/C=C/C(=O)N1CCC[C@@H](n2cc(-c3ccc(Oc4ccccc4)cc3)c3c(N)n[nH]c(=O)c32)C1 [Example 25, 4-amino-1-[(3R)-1-[(E)-but-2-enoyl]-3-piperidyl]-3-(4-phenoxyphenyl)-6H-pyrrolo[2,3-d]pyridazin-7-one] | 10 to 1000 |
| CN(C)C/C=C/C(=O)N1CCC[C@@H](n2cc(-c3ccc(Oc4ccccc4)cc3)c3c(N)n[nH]c(=O)c32)C1 [Example 26, 4-amino-1-[(3R)-1-[(E)-4-(dimethylamino)but-2-enoyl]-3-piperidyl]-3-(4-phenoxyphenyl)-6H-pyrrolo[2,3-d]pyridazin-7-one] | ≤ 10 |
| CCN(CC)C/C=C/C(=O)N1CCC[C@@H](n2cc(-c3ccc(Oc4ccccc4)cc3)c3c(N)n[nH]c(=O)c32)C1 [Example 27, 4-amino-1-[(3R)-1-[(E)-4-(diethylamino)but-2-enoyl]-3-piperidyl]-3-(4-phenoxyphenyl)-6H-pyrrolo[2,3-d]pyridazin-7-one] | ≤ 10 |
| Nc1n[nH]c(=O)c2c1c(-c1ccc(Oc3ccccc3)cc1)cn2[C@@H]1CCCN(C(=O)/C=C/CNC2CC2)C1 [Example 28, 4-amino-1-[(3R)-1-[(E)-4-(cyclopropylamino)but-2-enoyl]-3-piperidyl]-3-(4-phenoxyphenyl)-6H-pyrrolo[2,3-d]pyridazin-7-one] | ≤ 10 |
| CN(C/C=C/C(=O)N1CCC[C@@H](n2cc(-c3ccc(Oc4ccccc4)cc3)c3c(N)n[nH]c(=O)c32)C1)C1CC1 [Example 29, 4-amino-1-[(3R)-1-[(E)-4-(cyclopropyl(methyl)amino)but-2-enoyl]-3-piperidyl]-3-(4-phenoxyphenyl)-6H-pyrrolo[2,3-d]pyridazin-7-one] | ≤ 10 |

From patent US10323037B2, “Aminopyridazinone compounds as protein kinase inhibitors” (Jiangsu Hengrui Medicine Co., Ltd., priority 2014, dated 2019)
